In patent publication US20240140957A1, “BRIDGED COMPOUNDS AS KRAS G12D INHIBITOR AND DEGRADER AND THE USE THEREOF” (BeiGene Switzerland GmbH, priority 2021, published 2024) one finds IC50 data, which are given here for 18 compounds.

One assay concerns the target GDP-loaded KRAS G12D (Homo sapiens, UniProt P01116, G12D). The experiment in a line: KRAS G12D Probe Displacement Assay. In kind it is binding. Conditions: KRAS G12D 0.5 nM, biotinylated probe 2 4 nM; read-out: KRAS G12D Probe Displacement Assay IC50.
The test system of assay [1] is pERK1/2 (THR202/TYR204) in AsPC-1 cells. The experiment in a line: pERK Assay (HTRF) in AsPC-1 cells. Type of assay: cell-based. Conditions: Homo sapiens, ASPC1, 2 h compound treatment. For orientation: Time-resolved FRET reads energy transfer from a long-lived donor to a nearby acceptor.
The target of another assay is GDP-loaded WT KRAS (Homo sapiens, UniProt P01116). As to the kind of experiment: KRAS WT Probe Displacement Assay. Type of assay: binding. Conditions: WT KRAS 3 nM, biotinylated probe 1 60 nM; read-out: KRAS WT Probe Displacement Assay IC50.

The IC50 is the concentration that gives 50% inhibition.

Chain of GDP-loaded KRAS G12D (P01116 1-188 isoform P01116-2 G12D): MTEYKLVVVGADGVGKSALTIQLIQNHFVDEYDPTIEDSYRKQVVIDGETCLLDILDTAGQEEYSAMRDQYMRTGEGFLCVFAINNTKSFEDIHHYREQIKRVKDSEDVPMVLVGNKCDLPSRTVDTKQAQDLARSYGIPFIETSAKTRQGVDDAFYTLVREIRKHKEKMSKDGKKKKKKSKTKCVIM
Chain of GDP-loaded WT KRAS (P01116 1-188 isoform P01116-2): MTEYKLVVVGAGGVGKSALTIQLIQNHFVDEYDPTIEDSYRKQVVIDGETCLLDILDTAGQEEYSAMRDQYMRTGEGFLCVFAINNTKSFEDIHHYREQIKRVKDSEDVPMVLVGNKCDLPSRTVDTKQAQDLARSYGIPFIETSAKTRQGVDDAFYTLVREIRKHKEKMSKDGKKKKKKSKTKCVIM

For `Cc1cc(N)nc(-c2c(C(F)(F)F)cc3c(N4CC5CCC(C4)N5)nc(OC[C@@]45CCCN4C[C@H](F)C5)nc3c2F)c1C(F)(F)F` [Example E77, 6-(4-(3,8-diazabicyclo[3.2.1]octan-3-yl)-8-fluoro-2-(((2R,7aS)-2-fluorotetrahydro-1H-pyrrolizin-7a(5H)-yl)methoxy)-6-(trifluoromethyl)quinazolin-7-yl)-4-methyl-5-(trifluoromethyl)pyridin-2-amine], the values for the IC50 (on GDP-loaded KRAS G12D; in assay [1]; on GDP-loaded WT KRAS) were 0.00052 µM, 0.122 µM and 0.033 µM, respectively.
`CCc1cc2c(N3CC4CCC(C3)N4)nc(OC[C@@]34CCCN3C[C@H](F)C4)nc2c(F)c1-c1ccc(F)c2sc(N)nc12` [Example E67, 4-(4-(3,8-diazabicyclo[3.2.1]octan-3-yl)-6-ethyl-8-fluoro-2-(((2R,7aS)-2-fluorotetrahydro-1H-pyrrolizin-7a(5H)-yl)methoxy)quinazolin-7-yl)-7-fluorobenzo[d]thiazol-2-amine]: the results for the half-inhibitory concentration (IC50) (on GDP-loaded KRAS G12D; in assay [1]; at GDP-loaded WT KRAS) were 0.00045 µM, 0.095 µM and 0.0099 µM, respectively.
As to `Nc1nc2c(-c3c(Cl)cc4c(N5CC6CCC(C5)N6)nc(OC[C@@]56CCCN5C[C@H](F)C6)nc4c3F)c(F)cc(F)c2s1` [Example E75, 4-(4-(3,8-diazabicyclo[3.2.1]octan-3-yl)-6-chloro-8-fluoro-2-(((2R,7aS)-2-fluorotetrahydro-H-pyrrolizin-7a(5H)-yl)methoxy)quinazolin-7-yl)-5,7-difluorobenzo[d]thiazol-2-amine], the IC50 on GDP-loaded KRAS G12D was 0.00023 µM; in assay [1], 0.04 µM; on GDP-loaded WT KRAS, 0.0018 µM.
On to `COCCNC1C[C@H]2CC[C@@H]1N2c1nc(OC[C@@]23CCCN2C[C@H](F)C3)nc2c(F)c(-c3ccc(F)c4sc(N)nc34)c(C(F)(F)F)cc12` (stereo partly drawn) [Example E58, 7-fluoro-4-(8-fluoro-2-(((2R,7aS)-2-fluorotetrahydro-1H-pyrrolizin-7a(5H)-yl)methoxy)-4-((1S,4R)-2-((2-methoxyethyl)amino)-7-azabicyclo[2.2.1]heptan-7-yl)-6-(trifluoromethyl)quinazolin-7-yl)benzo[d]thiazol-2-amine], for which the IC50 at GDP-loaded KRAS G12D was 0.0005 µM; in assay [1], 0.19 µM; on GDP-loaded WT KRAS it was 0.0076 µM.
Consider `Cc1cc(N)nc(-c2c(Cl)cc3c(N4C5CNCC4COC5)nc(OC[C@@]45CCCN4C[C@H](F)C5)nc3c2F)c1C(F)(F)F` (stereo in doubt) [Example E88, 6-(4-(3-oxa-7,9-diazabicyclo[3.3.1]nonan-9-yl)-6-chloro-8-fluoro-2-((2-fluorotetrahydro-1H-pyrrolizin-7a(5H)-yl)methoxy)quinazolin-7-yl)-4-methyl-5-(trifluoromethyl)pyridin-2-amine], for which the IC50 at GDP-loaded KRAS G12D was determined as 0.0017 µM; in assay [1], 0.172 µM; on GDP-loaded WT KRAS, 0.049 µM.
On to `Cc1c(-c2ccc(F)c3sc(N)nc23)c(C(F)(F)F)cc2c(N3CC4CCC(C3)N4)nc(OC[C@@]34CCCN3C[C@H](F)C4)nc12` [Example E76, 4-(4-(3,8-diazabicyclo[3.2.1]octan-3-yl)-2-(((2R,7aS)-2-fluorotetrahydro-1H-pyrrolizin-7a(5H)-yl)methoxy)-8-methyl-6-(trifluoromethyl)quinazolin-7-yl)-7-fluorobenzo[d]thiazol-2-amine], for which the values for the 50% inhibitory concentration (IC50) (on GDP-loaded KRAS G12D; in assay [1]; on GDP-loaded WT KRAS) were 0.00012 µM, 0.058 µM and 0.0048 µM, respectively.
In the case of `Nc1cc(Cl)c(C(F)(F)F)c(-c2c(Cl)cc3c(N4CC5CCC(C4)N5)nc(OC[C@@]45CCCN4C[C@H](F)C5)nc3c2F)c1` [Example E80, 3-(4-(3,8-diazabicyclo[3.2.1]octan-3-yl)-6-chloro-8-fluoro-2-(((2R,7aS)-2-fluorotetrahydro-1H-pyrrolizin-7a(5H)-yl)methoxy)quinazolin-7-yl)-5-chloro-4-(trifluoromethyl)aniline], the figures for the IC50 (on GDP-loaded KRAS G12D; in assay [1]; on GDP-loaded WT KRAS) were 0.00066 µM, 0.307 µM and 0.046 µM, respectively.
Regarding `CC(C)c1cc2c(N3CC4CCC(C3)N4)nc(OC[C@@]34CCCN3C[C@H](F)C4)nc2c(F)c1-c1ccc(F)c2sc(N)nc12` [Example E71, 4-(4-(3,8-diazabicyclo[3.2.1]octan-3-yl)-8-fluoro-2-(((2R,7aS)-2-fluorotetrahydro-1H-pyrrolizin-7a(5H)-yl)methoxy)-6-isopropylquinazolin-7-yl)-7-fluorobenzo[d]thiazol-2-amine], the IC50 is 0.00059 µM on GDP-loaded KRAS G12D, 0.137 µM in assay [1] and 0.0378 µM on GDP-loaded WT KRAS.
On to `C=Cc1cc2c(N3CC4CCC(C3)N4)nc(OC[C@@H]3C[C@@H](F)CN3C)nc2c(F)c1-c1ccc(F)c2sc(N)nc12` [Example E66, 4-(4-((3,8-diazabicyclo[3.2.1]octan-3-yl)-8-fluoro-2-(((2S,4R)-4-fluoro-1-methylpyrrolidin-)-yl)methoxy)-6-vinylquinazolin-7-yl)-7-fluorobenzo[d]thiazol-2-amine], for which the IC50 on GDP-loaded KRAS G12D turned out to be 0.0022 µM; in assay [1], 0.48 µM; on GDP-loaded WT KRAS it was 0.072 µM.
In the same order, the values of `C=C(C)c1cc2c(N3CC4CCC(C3)N4)nc(OC[C@@]34CCCN3C[C@H](F)C4)nc2c(F)c1-c1ccc(F)c2sc(N)nc12` [Example E69, 4-(4-(3,8-diazabicyclo[3.2.1]octan-3-yl)-8-fluoro-2-(((2R,7aS)-2-fluorotetrahydro-1H-pyrrolizin-7a(5H)-yl)methoxy)-6-(prop-1-en-2-yl)quinazolin-7-yl)-7-fluorobenzo[d]thiazol-2-amine] are 0.00072 µM, 0.216 µM and 0.072 µM.
With `Nc1nc2c(-c3c(OC(F)(F)F)cc4c(N5CC6CCC(C5)N6)nc(OC[C@@]56CCCN5C[C@H](F)C6)nc4c3F)ccc(F)c2s1` [Example E87, 4-(4-(3,8-diazabicyclo[3.2.1]octan-3-yl)-8-fluoro-2-(((2R,7aS)-2-fluorotetrahydro-1H-pyrrolizin-7a(5H)-yl)methoxy)-6-(trifluoromethoxy)quinazolin-7-yl)-7-fluorobenzo[d]thiazol-2-amine], the IC50 on GDP-loaded KRAS G12D is 0.00024 µM; in assay [1] it was 0.112 µM; at GDP-loaded WT KRAS it was 0.025 µM.
On to `C[C@@H](CN1CCC(F)CC1(C)C)Oc1nc(N2CC3CCC(C2)N3)c2cc(C(F)(F)F)c(-c3ccc(F)c4sc(N)nc34)c(F)c2n1` (stereo partly drawn) [Example E72, 4-(4-(3,8-diazabicyclo[3.2.1]octan-3-yl)-8-fluoro-2-(((2S)-1-(4-fluoro-2,2-dimethylpiperidin-1-yl)propan-2-yl)oxy)-6-(trifluoromethyl)quinazolin-7-yl)-7-fluorobenzo[d]thiazol-2-amine], for which the IC50 at GDP-loaded KRAS G12D amounted to 0.0039 µM; in assay [1], 1.07 µM; at GDP-loaded WT KRAS it was 0.12 µM.
Consider `Nc1cc(Cl)c(C(F)(F)F)c(-c2c(Cl)cc3c(N4CC5CCC(C4)N5)nc(OC[C@@]45CCCN4C[C@H](F)C5)nc3c2F)n1` [Example E65, 6-(4-(3,8-diazabicyclo[3.2.1]octan-3-yl)-6-chloro-8-fluoro-2-(((2R,7aS)-2-fluorotetrahydro-1H-pyrrolizin-7a(5H)-yl)methoxy)quinazolin-7-yl)-4-chloro-5-(trifluoromethyl)pyridin-2-amine], for which the IC50 was determined as 0.00044 µM at GDP-loaded KRAS G12D, 0.065 µM in assay [1] and 0.0205 µM on GDP-loaded WT KRAS.
For the compound `CN1CCCC1(C)COc1nc(N2CC3CCC(C2)N3)c2cc(Cl)c(-c3ccc(F)c4sc(N)nc34)c(F)c2n1` (stereo not drawn) [Example E61, 4-(4-(3,8-diazabicyclo [3.2.1]octan-3-yl)-6-chloro-2-((1,2-dimethylpyrrolidin-2-yl)methoxy)-8-fluoroquinazolin-7-yl)-7-fluorobenzo[d]thiazol-2-amine], the 50% inhibitory concentration (IC50) at GDP-loaded KRAS G12D is 0.0026 µM; in assay [1], 2 µM; on GDP-loaded WT KRAS, 0.24 µM.
Regarding `Nc1nc2c(-c3c(C(F)(F)F)cc4c(N5CC6CCC(C5)N6)nc(OC[C@@]56CCCN5C[C@H](F)C6)nc4c3Cl)ccc(F)c2s1` [Example E64, 4-(4-(3,8-diazabicyclo[3.2.1]octan-3-yl)-8-chloro-2-(((2R,7aS)-2-fluorotetrahydro-1H-pyrrolizin-7a(5H)-yl)methoxy)-6-(trifluoromethyl)quinazolin-7-yl)-7-fluorobenzoI[d]thiazol-2-amine], the results for the IC50 (at GDP-loaded KRAS G12D; in assay [1]; at GDP-loaded WT KRAS) were 0.00033 µM, 0.038 µM and 0.0051 µM, respectively.
On to `Oc1cccc(F)c1-c1c(Cl)cc2c(N3CC4CCC(C3)N4)nc(OC[C@@]34CCCN3C[C@H](F)C4)nc2c1F` [Example E81, 2-(4-(3,8-diazabicyclo[3.2.1]octan-3-yl)-6-chloro-8-fluoro-2-(((2R,7aS)-2-fluorotetrahydro-1H-pyrrolizin-7a(5H)-yl)methoxy)quinazolin-7-yl)-3-fluorophenol], for which the IC50 at GDP-loaded KRAS G12D was 0.0069 µM; in assay [1], 2.38 µM; on GDP-loaded WT KRAS, 0.99 µM.
In the same order, the values of `Nc1nc2c(-c3c(C(F)(F)F)cc4c(N5CC6CCC(C5)N6)nc(OC[C@@]56CCCN5C[C@H](F)C6)nc4c3F)ccc(F)c2s1` [Example E52, 4-(4-(3,8-diazabicyclo[3.2.1]octan-3-yl)-8-fluoro-2-(((2R,7aS)-2-fluorotetrahydro-1H-pyrrolizin-7a(5H)-yl)methoxy)-6-(trifluoromethyl)quinazolin-7-yl)-7-fluorobenzoI[d]thiazol-2-amine] are 0.00036 µM, 0.048 µM and 0.003 µM.
In the case of `Cc1c(F)c(N)nc(-c2c(Cl)cc3c(N4CC5CCC(C4)N5)nc(OC[C@@]45CCCN4C[C@H](F)C5)nc3c2F)c1C(F)(F)F` [Example E78, 6-(4-(3,8-diazabicyclo[3.2.1]octan-3-yl)-6-chloro-8-fluoro-2-(((2R,7aS)-2-fluorotetrahydro-1H-pyrrolizin-7a(5H)-yl)methoxy)quinazolin-7-yl)-3-fluoro-4-methyl-5-(trifluoromethyl)pyridin-2-amine], the concentration for half-maximal inhibition (IC50) is 0.00099 µM at GDP-loaded KRAS G12D, 0.159 µM in assay [1] and 0.101 µM at GDP-loaded WT KRAS.
